# Results as given in paper PMC9147171, “Pharmacokinetic/Pharmacodynamic Evaluation of a New Purine-2,6-Dione Derivative in Rodents with Experimental Autoimmune Diseases” (Pharmaceutics, 2022).
# Experiments:
# PDE4B [1] = conditions: read-out: IC50 (µM) Against PDE Isoform PDE4B; cited from earlier work
# PDE7A [2] = conditions: read-out: IC50 (µM) Against PDE Isoform PDE7A; cited from earlier work
# [3] = system: MOG35–55-induced EAE in mice; test: MOG35-55-induced experimental autoimmune encephalomyelitis (EAE) in mice, PK/PD EAE progression model; type: in vivo, female C57BL/6 mice
# Description: Female C57BL/6 mice were immunized by subcutaneous injection of MOG35–55 peptide emulsified in complete Freund’s adjuvant and IP administration of pertussis toxin solution in PBS (Hooke Laboratories, Inc., Lawrence, MA, USA). Mice developed EAE 8–14 days after immunization and on day 14 they were randomly divided into two groups. The study group (n = 6) was administered with compound 34 solution at an IP dose of 50 mg·kg^−1 once daily for 15 days, whereas the control group (n = 6) received vehicle alone. To follow the progress of the disease, clinical score (CS) (scale 0–5), including “in-between” scores (i.e., 0.5, 1.5, 2.5, 3.5, and 4.5), and body weight of mice were evaluated according to the protocol provided by Hooke Laboratories, Inc.. Using the Mann–Whitney U test, it was verified that there is no significant difference in CS between the groups on the day of randomization. […]
# The model assumes that some time is required for the compound to distribute from the serum to the site of action before it interacts with a biological target and exerts the pharmacological effect. […] The progression of disease, which was measured by CS, is stimulated by the sum of the signals from 20th and 38th transit compartments that allows us to capture the onset of the disease, the temporary remission, and the relapse of the disease that is a characteristic feature of this animal model of MS [30]. […]
# PDE7A [4] = test: PDE inhibition assay, PDE7A (previous investigations); type: biochemical; conditions: ratio of IC50 values, vs GRMS-55
# [5] = system: LPS-induced endotoxemia in rats; set-up: method as in PMID 29407965; conditions: single IP dose of 50 mg·kg^−1, at 1.5 h post-LPS dosing; cited from earlier work
# PDE4B [6] = test: PDE inhibition assay, PDE4B (previous investigations); type: biochemical; conditions: ratio of IC50 values, vs GRMS-55
# [7] = system: ConA-induced hepatitis in mice; test: ConA-induced hepatitis in mice; type: in vivo, BALB/c mice; conditions: 50 mg·kg^−1 IP 30 min prior to ConA
# Description: ConA was dissolved in saline for injection at a concentration of 2 mg·mL^−1. The mice were given IP doses of compound 34 or the equivalent volume of vehicle (control group) and, 30 min later, animals were given an IV injection of ConA (20 mg·kg^−1) via tail vein. An additional group of mice was given vehicle alone IP followed by an IV injection of saline. The mice were sacrificed by exsanguination at 2, 8, and 24 h post-ConA dosing. Blood samples were collected and handled as described above.
# Serum aspartate transaminase (AST) and alanine transaminase (ALT) activities were analyzed using the chemistry analyzer BS-800 (Shenzhen Mindray Bio-medical Electronics Co., Ltd., Shenzhen, China). Cytokine levels in mouse serum (TNFα, IL-4, IL-6, and interferon (IFN)γ) were quantified by a Magnetic Luminex® Assay (R&D Systems, Inc, Minneapolis, MN, USA) using a Magpix platform (Luminex Corp., Austin, TX, USA).
smiles,measurement,setting,value
"Cn1c(=O)c2c(nc(NCCc3ccccc3)n2CCCC(=O)NN=Cc2ccc(O)c(O)c2O)n(C)c1=O [Compound 34, 4-(1,3-dimethyl-2,6-dioxo-8-(phenethylamino)-2,3,6,7-tetrahydro-1H-purin-7-yl)-N′-(2,3,4-trihydroxybenzylidene)butanehydrazide]",IC50,PDE4B [1],1.4 µM
same,IC50,PDE7A [2],3.2 µM
same,"mean relative body weight, experimental vs control group",[3]; 50 mg·kg^−1 IP once daily for 15 days,not significantly different
same,IC50 at 50 mg/kg,"[3]; Mus musculus, ip, 50 mg·kg^−1 IP once daily for 15 days from day 14, clinical score, PK/PD model estimate, read-out: IC50_CS Compound 34 concentration resulting in 50% inhibition of disease progression, Estimate (CV%)",7 ng/mL
same,times more potent as a PDE7A inhibitor compared to GRMS-55,PDE7A [4],about two
same,reduction of maximum plasma TNFα concentrations,[5],84%
same,times more active as a PDE4B inhibitor compared to GRMS-55,PDE4B [6],19 times
same,serum IFNγ level compared to the control group,[7]; 2 h after ConA injection,not significantly different
same,"serum IL-4 concentration, lower compared to the control group",[7]; 2 h after ConA injection,76%
same,serum IL-6 level compared to the control group,[7]; 2 h after ConA injection,not significantly different
same,"serum TNFα concentration, lower compared to the control group",[7]; 2 h after ConA injection,34%
same,"ALT serum activity, reduction compared to the control group",[7]; 8 h post-ConA injection,73%
same,"AST serum activity, reduction compared to the control group",[7]; 8 h post-ConA injection,59%
same,"serum IFNγ concentration, lower compared to the control group",[7]; 24 h post-ConA dosing,36%
same,"serum IL-4 level, treatment vs control group",[7]; 24 h post-ConA dosing,not different
same,"serum IL-6 level, treatment vs control group",[7]; 24 h post-ConA dosing,not different
